Blank lines part the entries; values can stand above or below the compound they belong to.
Experiments:
Phaedon cochleariae = assay: Phaedon test (spray application); assay type: in vivo; details: topical, 168 h, spray on Chinese cabbage leaves, after 7 d, read-out: Kill rate in % after 7 d
Protocol: Phaedon Test (Spray Application) [table] To produce a suitable preparation of active compound, 1 part by weight of active compound is mixed with the stated amounts of solvent and emulsifier, and the concentrate is diluted with emulsifier-containing water to the desired concentration. Chinese cabbage leaves (Brassica pekinensis) are treated by being sprayed with the preparation of the active compound of the desired concentration and are infested with mustard beetle larvae (Phaedon cochleariae) after the leaves have dried.

Spodoptera frugiperda = Spodoptera frugiperda test (spray application); assay type: in vivo; details: topical, 168 h, spray on maize leaf slices, after 7 d, read-out: Kill rate in % after 7 d
Protocol: Spodoptera frugiperda Test (Spray Application)
(§1) To produce a suitable preparation of active compound, 1 part by weight of active compound is mixed with the stated amounts of solvent and emulsifier, and the concentrate is diluted with emulsifier-containing water to the desired concentration.
Maize leave slices (Zea mays) are treated by being sprayed with the preparation of the active compound of the desired concentration and are infested with caterpillars of the fall army worm (Spodoptera frugiperda) after the leaves have dried.
(§2) After the specified period of time, the mortality in % is determined. 100% means that all the […] have been killed; 0% means that none of the […] have been killed.

Myzus persicae = assay: Myzus test (spray application); assay type: in vivo; details: topical, 120 h, spray on Chinese cabbage leaves, after 5 d, read-out: Kill rate in % after 5 d
Protocol: Myzus Test (Spray Application)
as §1
Chinese cabbage leaves (Brassica pekinensis), which are infested by the green peach aphid (Myzus persicae), are treated by being sprayed with the preparation of the active compound of the desired concentration.
as §2

Spodoptera exigua = Spodoptera exigua test; assay type: in vivo; details: 168 h, cabbage leaves dipped, after 7 d, read-out: Kill rate in % after 7 d
Protocol: as §1
Cabbage leaves (Brassica oleracea) are treated by being dipped into the preparation of active compound of the desired concentration and are populated with caterpillars of the army worm (Spodoptera exigua) while the leaves are still moist.
(§3) After the desired period of time, the kill in % is determined. 100% means that all caterpillars have been killed; 0% means that none of the caterpillars have been killed.

Heliothis armigera = Heliothis armigera test; assay type: in vivo; details: Helicoverpa armigera, 168 h, soybean shoots dipped, after 7 d, read-out: Kill rate in % after 7 d
Protocol: as §1
Soybean shoots (Glycine max) are treated by being dipped into the preparation of active compound of the desired concentration and are populated with caterpillars of Heliothis armigera while the leaves are still moist.
as §3

SMILES: CCS(=O)(=O)C[C@H](C)NC(=O)c1c(I)cccc1C(=O)Nc1ccc(C(F)(C(F)(F)F)C(F)(F)Br)cc1C (stereo partly drawn) [Compound 2]
pest or weed control at 20 g/ha (Phaedon cochleariae): 100%

SMILES: CCSC[C@H](C)NC(=O)c1c(I)cccc1C(=O)Nc1ccc(C(F)(C(F)F)C(F)(F)F)cc1Br (stereo partly drawn) [Compound 6]
pest or weed control at 20 g/ha (Spodoptera frugiperda): 100%

SMILES: CCS(=O)(=O)C[C@H](C)NC(=O)c1c(I)cccc1C(=O)Nc1ccc(C(C(F)F)C(F)(F)F)cc1C (stereo partly drawn) [Compound 7]
pest or weed control at 100 g/ha (Myzus persicae): 100%

melting point: 138 to 141 °C
SMILES: CCSC[C@H](C)NC(=O)c1c(I)cccc1C(=O)Nc1ccc(C(F)(C(F)F)C(F)(F)F)cc1F (stereo partly drawn) [Compound 8]
pest or weed control at 20 ppm (Spodoptera exigua): 100%

melting point: 124 °C
SMILES: CSC[C@H](C)NC(=O)c1c(I)cccc1C(=O)Nc1ccc(C(F)(C(F)(F)F)C(F)(F)Br)cc1C (stereo partly drawn) [Compound 9, N^1-[4-(2-Bromo-1,2,2-trifluoro-1-trifluoromethyl-ethyl)-2-methyl-phenyl]-3-iodo-N^2-[(S)-1-methyl-2-methylsulfanyl-ethyl]-phthalamide]
pest or weed control at 20 ppm (Heliothis armigera): 100%

SMILES: CSC[C@H](C)NC(=O)c1c(I)cccc1C(=O)Nc1ccc(C(F)(C(F)F)C(F)(F)F)cc1C (stereo partly drawn) [Compound 10]
pest or weed control at 20 g/ha (Phaedon cochleariae): 100%

SMILES: CSC[C@H](C)NC(=O)c1c(I)cccc1C(=O)Nc1ccc(C(F)(C(F)F)C(F)(F)F)cc1Cl (stereo partly drawn) [Compound 12]
pest or weed control at 20 g/ha (Spodoptera frugiperda): 100%

melting point: 112 °C
SMILES: CCS(=O)(=O)C[C@H](C)NC(=O)c1c(I)cccc1C(=O)Nc1ccc(C(F)(C(F)F)C(F)(F)F)cc1C (stereo partly drawn) [Compound 13]
pest or weed control at 20 ppm (Spodoptera exigua): 100%

SMILES: CSC[C@H](C)NC(=O)c1c(I)cccc1C(=O)Nc1ccc(C(C(F)F)C(F)(F)F)cc1Cl (stereo partly drawn) [Compound 14]
pest or weed control at 20 ppm (Heliothis armigera): 100% | pest or weed control at 100 g/ha (Myzus persicae): 100%

SMILES: CSC[C@H](C)NC(=O)c1c(I)cccc1C(=O)Nc1ccc(C(F)(C(F)F)C(F)(F)F)cc1Br (stereo partly drawn) [Compound 15]
pest or weed control at 20 g/ha (Phaedon cochleariae): 100%

SMILES: CSC[C@H](C)NC(=O)c1c(I)cccc1C(=O)Nc1ccc(C(F)(C(F)F)C(F)(F)F)cc1F (stereo partly drawn) [Compound 16]
pest or weed control at 20 g/ha (Spodoptera frugiperda): 100%

SMILES: CSC[C@H](C)NC(=O)c1c(I)cccc1C(=O)Nc1ccc(C(C(F)F)C(F)(F)F)cc1F (stereo partly drawn) [Compound 17]
pest or weed control at 100 g/ha (Myzus persicae): 100%

melting point: 128 °C
SMILES: Cc1cc(C(F)(C(F)(F)F)C(F)(F)Br)ccc1NC(=O)c1cccc(I)c1C(=O)N[C@@H](C)CS(C)(=O)=O (stereo partly drawn) [Compound 19, N^1-[4-(2-Bromo-1,2,2-trifluoro-1-trifluoromethyl-ethyl)-2-methyl-phenyl]-3-iodo-N^2-[2-methanesulfonyl-(S)-1-methyl-ethyl]-phthalamide]
pest or weed control at 20 ppm (Spodoptera exigua): 100%

melting point: 123 °C
SMILES: Cc1cc(C(C(F)F)C(F)(F)F)ccc1NC(=O)c1cccc(I)c1C(=O)N[C@@H](C)CS(C)(=O)=O (stereo partly drawn) [Compound 20]
pest or weed control at 20 ppm (Heliothis armigera): 100%

SMILES: CSC[C@H](C)NC(=O)c1c(I)cccc1C(=O)Nc1ccc(C(C(F)F)C(F)(F)F)cc1Br (stereo partly drawn) [Compound 22]
pest or weed control at 20 g/ha (Phaedon cochleariae): 100%

SMILES: CCS(=O)(=O)C[C@H](C)NC(=O)c1c(I)cccc1C(=O)Nc1ccc(C(C(F)F)C(F)(F)F)cc1Cl (stereo partly drawn) [Compound 26]
pest or weed control at 20 g/ha (Spodoptera frugiperda): 100% | pest or weed control at 100 g/ha (Myzus persicae): 100%

melting point: 184 °C
SMILES: C[C@@H](CS(C)(=O)=O)NC(=O)c1c(I)cccc1C(=O)Nc1ccc(C(F)(C(F)F)C(F)(F)F)cc1Cl (stereo partly drawn) [Compound 27]
pest or weed control at 20 ppm (Spodoptera exigua): 100%

SMILES: CSC[C@H](C)NC(=O)c1c(I)cccc1C(=O)Nc1ccc(C(F)(C(F)F)C(F)(F)F)cc1C#N (stereo partly drawn) [Compound 29]
pest or weed control at 20 g/ha (Phaedon cochleariae): 83%

SMILES: C[C@@H](CS(C)(=O)=O)NC(=O)c1c(I)cccc1C(=O)Nc1ccc(C(F)(C(F)F)C(F)(F)F)cc1Br (stereo partly drawn) [Compound 30]
pest or weed control at 20 g/ha (Spodoptera frugiperda): 100%

melting point: 134 °C
SMILES: CCS(=O)(=O)C[C@H](C)NC(=O)c1c(I)cccc1C(=O)Nc1ccc(C(F)(C(F)F)C(F)(F)F)cc1Br (stereo partly drawn) [Compound 34]
pest or weed control at 20 ppm (Spodoptera exigua): 100%

SMILES: CSC[C@H](C)NC(=O)c1c(Cl)cccc1C(=O)Nc1ccc(C(F)(C(F)F)C(F)(F)F)cc1C (stereo partly drawn) [Compound 39]
pest or weed control at 20 g/ha (Spodoptera frugiperda): 100%

melting point: 105 °C
SMILES: CSC[C@H](C)NC(=O)c1c(Cl)cccc1C(=O)Nc1ccc(C(C(F)F)C(F)(F)F)cc1C (stereo partly drawn) [Compound 40]
pest or weed control at 20 ppm (Heliothis armigera): 100%

SMILES: CSC[C@H](C)NC(=O)c1c(Cl)cccc1C(=O)Nc1ccc(C(F)(C(F)F)C(F)(F)F)cc1Cl (stereo partly drawn) [Compound 41]
pest or weed control at 20 g/ha (Phaedon cochleariae): 100%

SMILES: Cc1cc(C(F)(C(F)(F)F)C(F)(F)Br)ccc1NC(=O)c1cccc(Cl)c1C(=O)N[C@@H](C)CS(C)(=O)=O (stereo partly drawn) [Compound 43]
pest or weed control at 100 g/ha (Myzus persicae): 100%

SMILES: CCSC[C@H](C)NC(=O)c1c(Cl)cccc1C(=O)Nc1ccc(C(F)(C(F)(F)F)C(F)(F)Br)cc1C (stereo partly drawn) [Compound 45]
pest or weed control at 20 g/ha (Phaedon cochleariae): 100%

melting point: 180 °C
SMILES: C[C@@H](CS(C)(=O)=O)NC(=O)c1c(Cl)cccc1C(=O)Nc1ccc(C(F)(C(F)F)C(F)(F)F)cc1Cl (stereo partly drawn) [Compound 47]
pest or weed control at 20 ppm (Spodoptera exigua): 100%

melting point: 198 °C
SMILES: C[C@@H](CS(C)(=O)=O)NC(=O)c1c(Cl)cccc1C(=O)Nc1ccc(C(C(F)F)C(F)(F)F)cc1Cl (stereo partly drawn) [Compound 48]
pest or weed control at 20 ppm (Heliothis armigera): 100%

SMILES: CCS(=O)(=O)C[C@H](C)NC(=O)c1c(Cl)cccc1C(=O)Nc1ccc(C(F)(C(F)(F)F)C(F)(F)Br)cc1C (stereo partly drawn) [Compound 49]
pest or weed control at 20 g/ha (Spodoptera frugiperda): 100%

SMILES: CCSC[C@H](C)NC(=O)c1c(Cl)cccc1C(=O)Nc1ccc(C(F)(C(F)F)C(F)(F)F)cc1Cl (stereo partly drawn) [Compound 50]
pest or weed control at 20 g/ha (Phaedon cochleariae): 100%

SMILES: CCSC[C@H](C)NC(=O)c1c(Cl)cccc1C(=O)Nc1ccc(C(C(F)F)C(F)(F)F)cc1Cl (stereo partly drawn) [Compound 51]
pest or weed control at 100 g/ha (Myzus persicae): 100%

melting point: 148 °C
SMILES: CCSC[C@H](C)NC(=O)c1c(Br)cccc1C(=O)Nc1ccc(C(F)(C(F)F)C(F)(F)F)cc1Cl (stereo partly drawn) [Compound 53]
pest or weed control at 20 ppm (Heliothis armigera): 100%

melting point: 175 °C
SMILES: CCS(=O)(=O)C[C@H](C)NC(=O)c1c(Cl)cccc1C(=O)Nc1ccc(C(F)(C(F)F)C(F)(F)F)cc1Cl (stereo partly drawn) [Compound 55]
pest or weed control at 20 ppm (Heliothis armigera): 100%

melting point: 116 °C
SMILES: CCS(=O)(=O)C[C@H](C)NC(=O)c1c(Cl)cccc1C(=O)Nc1ccc(C(C(F)F)C(F)(F)F)cc1Cl (stereo partly drawn) [Compound 56]
pest or weed control at 20 ppm (Spodoptera exigua): 100%

SMILES: CCS(=O)(=O)C[C@H](C)NC(=O)c1c(Br)cccc1C(=O)Nc1ccc(C(F)(C(F)(F)F)C(F)(F)Br)cc1C (stereo partly drawn) [Compound 57]
pest or weed control at 20 g/ha (Phaedon cochleariae): 100%

melting point: 118 °C
SMILES: CCS(=O)(=O)C[C@H](C)NC(=O)c1c(Br)cccc1C(=O)Nc1ccc(C(F)(C(F)F)C(F)(F)F)cc1Cl (stereo partly drawn) [Compound 58]
pest or weed control at 20 ppm (Heliothis armigera): 100%

melting point: 121 °C
SMILES: CCS(=O)(=O)C[C@H](C)NC(=O)c1c(Br)cccc1C(=O)Nc1ccc(C(C(F)F)C(F)(F)F)cc1Cl (stereo partly drawn) [Compound 59]
pest or weed control at 20 ppm (Spodoptera exigua): 100%

SMILES: Cc1cc(C(C(F)F)C(F)(F)F)ccc1NC(=O)c1cccc(I)c1C(=O)N[C@@H](C)C[S+](C)[O-] (stereo partly drawn) [Compound 60]
pest or weed control at 20 g/ha (Phaedon cochleariae): 100%

SMILES: CC[S+]([O-])C[C@H](C)NC(=O)c1c(I)cccc1C(=O)Nc1ccc(C(C(F)F)C(F)(F)F)cc1C (stereo partly drawn) [Compound 61]
pest or weed control at 20 g/ha (Phaedon cochleariae): 100%

SMILES: Cc1cc(C(C(F)F)C(F)(F)F)ccc1NC(=O)c1cccc(Cl)c1C(=O)N[C@@H](C)C[S+](C)[O-] (stereo partly drawn) [Compound 62]
pest or weed control at 100 g/ha (Myzus persicae): 100%

SMILES: CSC[C@H](C)NC(=O)c1c(Br)cccc1C(=O)Nc1ccc(C(F)(C(F)(F)F)C(F)(F)Br)cc1C (stereo partly drawn) [Compound 63]
pest or weed control at 100 g/ha (Myzus persicae): 90%

SMILES: Cc1cc(C(F)(C(F)(F)F)C(F)(F)Br)ccc1NC(=O)c1cccc(Br)c1C(=O)N[C@@H](C)CS(C)(=O)=O (stereo partly drawn) [Compound 64]
pest or weed control at 20 g/ha (Spodoptera frugiperda): 90%

SMILES: Cc1cc(C(F)(C(F)(F)F)C(F)(F)Br)ccc1NC(=O)c1cccc(I)c1C(=O)N[C@@H](C)C[S+](C)[O-] (stereo partly drawn) [Compound 65, N^1-[4-(2-Bromo-1,2,2-trifluoro-1-trifluoromethyl-ethyl)-2-methyl-phenyl]-3-iodo-N^2-[2-methanesulfinyl-(S)-1-methyl-ethyl]-phthalamide]
pest or weed control at 200 g/ha (Spodoptera frugiperda; 200 g/ha): 100%

SMILES: Cc1cc(C(F)(C(F)F)C(F)(F)F)ccc1NC(=O)c1cccc(I)c1C(=O)N[C@@H](C)C[S+](C)[O-] (stereo partly drawn) [Compound 66]
pest or weed control at 20 g/ha (Spodoptera frugiperda): 100% | pest or weed control at 100 g/ha (Myzus persicae): 100%

melting point: 140 to 142 °C
SMILES: CCSC[C@H](C)NC(=O)c1c(Br)cccc1C(=O)Nc1ccc(C(F)(C(F)F)C(F)(F)F)cc1Br (stereo partly drawn) [Compound 68]
pest or weed control at 20 ppm (Heliothis armigera): 100%

Reference: US20090118375A1, “Optically active phthalamides” (priority 2004, published 2009)
